# Measured values from ChEMBL document CHEMBL1201862, “PubChem BioAssay data set” (2004).
# Active and inactive are the calls of the source.
# Columns and labels:
# [1] = target: T1, G-protein coupled receptor 55 (Homo sapiens, UniProt Q9Y2T6); assay: GPR55 agonists via beta-arrestin recruitment, primary screen, imaging, U2OS cells, beta-arrestin-GFP redistribution (AID 1961); format: functional
# Cannabinoid receptor 2 [2] = target: T2, Cannabinoid receptor 2 (Homo sapiens, UniProt P34972); assay: SAR analysis of antagonists of the Cannabinoid Receptor 2 using an Image-Based Assay - Set 2. [Related pubchem assays (depositor defined):AID1961, AID1965]; format: functional
# T2 sequence (P34972 whole entry): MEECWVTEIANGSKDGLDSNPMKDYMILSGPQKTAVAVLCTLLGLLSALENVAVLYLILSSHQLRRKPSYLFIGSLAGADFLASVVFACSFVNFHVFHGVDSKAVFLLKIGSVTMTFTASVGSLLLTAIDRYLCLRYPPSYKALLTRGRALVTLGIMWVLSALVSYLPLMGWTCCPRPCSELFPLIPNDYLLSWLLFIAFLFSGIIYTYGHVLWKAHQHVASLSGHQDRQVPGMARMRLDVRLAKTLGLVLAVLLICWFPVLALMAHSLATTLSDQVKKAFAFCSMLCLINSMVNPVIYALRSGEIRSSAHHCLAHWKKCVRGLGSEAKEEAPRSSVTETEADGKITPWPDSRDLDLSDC
# Cannabinoid receptor 2 [3] = target: T2, Cannabinoid receptor 2; assay: SAR analysis of agonists of the Cannabinoid Receptor 2 using an Image-Based Assay - Set 2. [Related pubchem assays (depositor defined):AID1961, AID1965]; format: functional
# [4] = target: T1, G-protein coupled receptor 55; assay: SAR analysis of selective Agonists of GPR55 using an Image-Based Assay. [Related pubchem assays (depositor defined):AID1961, AID1965]; format: functional
# Cannabinoid receptor 1 = Cannabinoid receptor 1 (Homo sapiens, UniProt P21554); assay: SAR analysis of antagonists of the Cannabinoid Receptor 1 using an Image-Based Assay. [Related pubchem assays (depositor defined):AID1961, AID1965]; format: functional
# Cannabinoid receptor 1, sequence (P21554 whole entry, the tested form may be a part): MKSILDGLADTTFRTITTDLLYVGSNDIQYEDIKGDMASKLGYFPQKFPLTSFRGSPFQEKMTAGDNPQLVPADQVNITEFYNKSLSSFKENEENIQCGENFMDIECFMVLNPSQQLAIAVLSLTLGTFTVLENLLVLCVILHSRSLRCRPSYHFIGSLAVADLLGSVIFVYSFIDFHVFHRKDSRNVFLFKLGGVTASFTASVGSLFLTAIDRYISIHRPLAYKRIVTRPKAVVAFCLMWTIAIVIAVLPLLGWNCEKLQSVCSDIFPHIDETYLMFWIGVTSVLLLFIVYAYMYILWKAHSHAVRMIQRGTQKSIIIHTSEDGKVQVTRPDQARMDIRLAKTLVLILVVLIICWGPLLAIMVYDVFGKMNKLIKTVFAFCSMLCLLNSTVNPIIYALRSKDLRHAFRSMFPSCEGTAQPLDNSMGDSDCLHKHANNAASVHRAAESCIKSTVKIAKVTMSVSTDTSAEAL
# CHO = assay: cytotoxicity in TLR9-MyD88 CHO cells, dose response, cytotoxicity control for TLR9-MyD88 binding inhibitor project, cell-based, luminescence (AID 588339); format: functional, hamster; settings: Cricetulus griseus;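 further: CHO cells stably coexpressing TLR9 and MyD88 fusions from primary screen; compound exposure lasted 48 hours before viability readout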
# Cytochrome P450 1A2 = target: T3, Cytochrome P450 1A2 (Homo sapiens, UniProt P05177);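 further: PubChem cytochrome P450 panel assay, CYP1A2 panel member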
# T3 sequence (P05177 whole entry): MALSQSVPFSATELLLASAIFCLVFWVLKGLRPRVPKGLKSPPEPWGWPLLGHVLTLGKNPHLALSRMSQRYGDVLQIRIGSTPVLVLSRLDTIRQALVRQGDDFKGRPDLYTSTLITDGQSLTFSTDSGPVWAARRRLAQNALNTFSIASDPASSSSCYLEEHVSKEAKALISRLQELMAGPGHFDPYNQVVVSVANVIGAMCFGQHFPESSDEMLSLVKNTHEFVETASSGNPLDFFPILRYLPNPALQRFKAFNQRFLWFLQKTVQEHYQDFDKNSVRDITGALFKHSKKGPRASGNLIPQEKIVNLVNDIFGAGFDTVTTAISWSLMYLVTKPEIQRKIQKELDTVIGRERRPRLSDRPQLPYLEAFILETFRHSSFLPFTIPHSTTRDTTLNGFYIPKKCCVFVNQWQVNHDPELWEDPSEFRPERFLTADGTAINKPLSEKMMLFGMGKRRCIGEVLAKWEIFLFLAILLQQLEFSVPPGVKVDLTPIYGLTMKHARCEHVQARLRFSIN
# [5] = target: Lysine-specific demethylase 4C (Homo sapiens, UniProt Q9H3R0); assay: GASC-1 (JMJD2C) histone demethylase inhibitors, dose response, biochemical, DELFIA europium, cherry-picked samples (AID 488835); format: functional
# Lysine-specific demethylase 4C, sequence (Q9H3R0 whole entry): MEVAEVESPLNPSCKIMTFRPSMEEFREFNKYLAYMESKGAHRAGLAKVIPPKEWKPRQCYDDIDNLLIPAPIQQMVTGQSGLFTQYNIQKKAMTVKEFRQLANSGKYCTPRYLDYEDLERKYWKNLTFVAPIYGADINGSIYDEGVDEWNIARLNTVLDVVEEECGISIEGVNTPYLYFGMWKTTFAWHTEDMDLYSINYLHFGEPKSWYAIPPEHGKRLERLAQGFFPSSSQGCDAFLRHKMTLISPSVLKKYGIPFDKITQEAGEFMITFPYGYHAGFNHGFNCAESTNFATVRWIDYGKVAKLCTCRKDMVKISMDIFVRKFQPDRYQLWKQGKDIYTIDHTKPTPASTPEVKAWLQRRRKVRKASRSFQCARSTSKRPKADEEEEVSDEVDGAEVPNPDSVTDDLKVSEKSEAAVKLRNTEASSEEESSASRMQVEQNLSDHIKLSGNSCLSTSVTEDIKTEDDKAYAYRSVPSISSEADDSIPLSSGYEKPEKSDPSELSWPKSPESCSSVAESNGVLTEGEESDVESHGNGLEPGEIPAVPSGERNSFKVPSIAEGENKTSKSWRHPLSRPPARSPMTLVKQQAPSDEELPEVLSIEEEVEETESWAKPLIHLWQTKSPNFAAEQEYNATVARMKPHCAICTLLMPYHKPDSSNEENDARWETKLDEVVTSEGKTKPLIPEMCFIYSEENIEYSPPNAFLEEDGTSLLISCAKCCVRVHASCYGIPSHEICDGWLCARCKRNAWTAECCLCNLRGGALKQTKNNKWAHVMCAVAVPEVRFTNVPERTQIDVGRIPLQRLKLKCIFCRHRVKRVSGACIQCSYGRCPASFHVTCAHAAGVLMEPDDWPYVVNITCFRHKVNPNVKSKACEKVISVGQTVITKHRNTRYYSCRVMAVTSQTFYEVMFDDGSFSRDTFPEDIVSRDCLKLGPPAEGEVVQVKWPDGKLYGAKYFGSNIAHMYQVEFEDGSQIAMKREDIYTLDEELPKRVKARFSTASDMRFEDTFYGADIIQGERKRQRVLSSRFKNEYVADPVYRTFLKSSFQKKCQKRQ
# Cytochrome P450 2C9 = Cytochrome P450 2C9 (Homo sapiens, UniProt P11712)
# Cytochrome P450 2C9, sequence (P11712 whole entry): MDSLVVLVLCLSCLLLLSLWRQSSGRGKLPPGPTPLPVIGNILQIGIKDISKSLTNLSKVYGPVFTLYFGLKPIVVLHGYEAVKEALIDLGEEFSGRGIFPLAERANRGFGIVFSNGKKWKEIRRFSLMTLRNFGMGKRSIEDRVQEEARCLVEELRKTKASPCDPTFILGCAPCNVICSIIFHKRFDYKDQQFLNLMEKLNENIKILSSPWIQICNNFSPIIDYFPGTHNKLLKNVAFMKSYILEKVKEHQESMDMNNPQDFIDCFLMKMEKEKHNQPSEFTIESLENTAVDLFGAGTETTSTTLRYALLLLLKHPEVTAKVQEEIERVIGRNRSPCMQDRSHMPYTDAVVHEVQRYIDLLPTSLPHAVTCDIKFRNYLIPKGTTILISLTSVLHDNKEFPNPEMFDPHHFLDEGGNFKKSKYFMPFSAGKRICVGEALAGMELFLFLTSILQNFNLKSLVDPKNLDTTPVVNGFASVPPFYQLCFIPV
# Caspase-3 = target: T4, Caspase-3 (Homo sapiens, UniProt P42574); format: functional;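 further: Dose-response selectivity test against caspase-3 for candidate inhibitors of sentrin-specific proteases (SENPs)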
# T4 sequence (P42574 whole entry): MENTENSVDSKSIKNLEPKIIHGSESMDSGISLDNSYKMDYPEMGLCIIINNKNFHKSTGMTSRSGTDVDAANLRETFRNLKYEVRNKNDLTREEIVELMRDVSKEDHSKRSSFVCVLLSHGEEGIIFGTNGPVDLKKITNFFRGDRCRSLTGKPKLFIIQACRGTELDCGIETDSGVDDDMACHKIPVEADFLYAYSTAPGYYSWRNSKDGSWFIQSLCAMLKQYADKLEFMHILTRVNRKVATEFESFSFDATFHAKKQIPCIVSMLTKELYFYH
# [6] = target: T5, Sentrin-specific protease 7 (Homo sapiens, UniProt Q9BQF6); format: functional;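 further: Luminescence-based dose-response confirmation of ultra-high-throughput screening hits, measuring inhibition of SENP7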
# T5 sequence (Q9BQF6 whole entry): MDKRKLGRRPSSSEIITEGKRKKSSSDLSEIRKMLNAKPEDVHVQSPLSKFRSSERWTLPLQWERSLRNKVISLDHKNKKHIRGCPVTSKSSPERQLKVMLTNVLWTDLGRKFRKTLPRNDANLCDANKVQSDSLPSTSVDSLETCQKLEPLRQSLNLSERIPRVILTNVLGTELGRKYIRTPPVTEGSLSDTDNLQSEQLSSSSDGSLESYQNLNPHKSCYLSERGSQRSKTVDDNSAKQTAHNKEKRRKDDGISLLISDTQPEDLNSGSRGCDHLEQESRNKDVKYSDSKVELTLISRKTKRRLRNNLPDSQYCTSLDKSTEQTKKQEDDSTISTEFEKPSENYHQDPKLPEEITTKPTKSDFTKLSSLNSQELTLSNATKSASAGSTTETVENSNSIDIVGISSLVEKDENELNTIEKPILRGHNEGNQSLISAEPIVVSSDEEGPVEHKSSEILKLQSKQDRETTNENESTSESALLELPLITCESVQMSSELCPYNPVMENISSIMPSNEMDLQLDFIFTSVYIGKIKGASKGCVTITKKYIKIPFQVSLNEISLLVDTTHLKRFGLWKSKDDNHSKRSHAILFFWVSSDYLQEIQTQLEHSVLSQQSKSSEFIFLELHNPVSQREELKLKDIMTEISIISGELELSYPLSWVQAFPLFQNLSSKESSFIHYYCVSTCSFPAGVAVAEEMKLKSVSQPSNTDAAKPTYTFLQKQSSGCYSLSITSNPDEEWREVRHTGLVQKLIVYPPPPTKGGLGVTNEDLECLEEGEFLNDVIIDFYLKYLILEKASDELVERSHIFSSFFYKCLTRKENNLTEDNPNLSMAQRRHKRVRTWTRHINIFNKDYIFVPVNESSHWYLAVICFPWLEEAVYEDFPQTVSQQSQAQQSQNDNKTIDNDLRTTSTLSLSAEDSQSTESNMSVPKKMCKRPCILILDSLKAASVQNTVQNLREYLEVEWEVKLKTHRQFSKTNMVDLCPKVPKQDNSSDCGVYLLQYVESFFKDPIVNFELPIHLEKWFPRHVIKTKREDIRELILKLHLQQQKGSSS
# [7] = target: T6, Sentrin-specific protease 6 (Homo sapiens, UniProt Q9GZR1); format: functional;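 further: Luminescence-based dose-response confirmatory assay of SENP6 inhibition, following up an ultra-high-throughput screen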
# T6 sequence (Q9GZR1 whole entry): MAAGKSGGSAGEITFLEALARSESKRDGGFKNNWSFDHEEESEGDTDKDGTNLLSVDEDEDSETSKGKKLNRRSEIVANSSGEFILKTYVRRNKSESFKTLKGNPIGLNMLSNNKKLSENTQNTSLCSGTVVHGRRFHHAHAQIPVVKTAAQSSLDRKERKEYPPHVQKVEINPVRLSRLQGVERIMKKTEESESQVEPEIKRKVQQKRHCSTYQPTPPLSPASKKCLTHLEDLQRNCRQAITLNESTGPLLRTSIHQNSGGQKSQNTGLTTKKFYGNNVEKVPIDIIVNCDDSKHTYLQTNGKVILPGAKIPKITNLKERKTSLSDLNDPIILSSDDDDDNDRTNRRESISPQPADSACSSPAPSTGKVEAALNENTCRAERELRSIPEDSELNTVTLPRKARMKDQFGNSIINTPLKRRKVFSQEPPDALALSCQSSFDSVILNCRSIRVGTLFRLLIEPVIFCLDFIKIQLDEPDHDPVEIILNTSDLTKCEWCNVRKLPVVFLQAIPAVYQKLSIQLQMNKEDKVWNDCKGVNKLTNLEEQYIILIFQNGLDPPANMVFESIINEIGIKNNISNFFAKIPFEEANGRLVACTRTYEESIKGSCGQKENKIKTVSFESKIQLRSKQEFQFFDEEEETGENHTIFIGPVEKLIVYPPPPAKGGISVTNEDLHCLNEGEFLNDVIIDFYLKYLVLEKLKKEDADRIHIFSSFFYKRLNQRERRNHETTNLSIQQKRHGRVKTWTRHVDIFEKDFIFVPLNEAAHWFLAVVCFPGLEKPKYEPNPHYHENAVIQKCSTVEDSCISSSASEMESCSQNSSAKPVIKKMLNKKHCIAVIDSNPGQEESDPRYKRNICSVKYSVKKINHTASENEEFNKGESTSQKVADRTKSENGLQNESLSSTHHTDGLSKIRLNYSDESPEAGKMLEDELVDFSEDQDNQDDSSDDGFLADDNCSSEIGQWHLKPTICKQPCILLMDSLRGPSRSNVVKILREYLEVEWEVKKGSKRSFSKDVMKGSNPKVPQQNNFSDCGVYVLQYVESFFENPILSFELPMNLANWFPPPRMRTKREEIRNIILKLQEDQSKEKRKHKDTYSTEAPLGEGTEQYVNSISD
# [8] = target: T7, Sentrin-specific protease 8 (Homo sapiens, UniProt Q96LD8); format: functional;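 further: luminescence read-out of SENP8 inhibition, dose-response confirmation following an ultra-high-throughput screen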
# T7 sequence (Q96LD8 whole entry): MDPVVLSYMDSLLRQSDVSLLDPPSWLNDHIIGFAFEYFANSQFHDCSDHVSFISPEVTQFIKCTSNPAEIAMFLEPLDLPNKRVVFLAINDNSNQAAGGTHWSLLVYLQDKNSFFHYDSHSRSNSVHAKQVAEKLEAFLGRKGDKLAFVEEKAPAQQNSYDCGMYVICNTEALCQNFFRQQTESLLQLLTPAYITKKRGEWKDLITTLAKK
# [9] = HepG2 cell cytotoxicity, dose response, cytotoxicity control, ATP luminescence, cherry-pick, activator set 2 (AID 1053143); format: functional, cell-based
# [10] = Luminescence Cell-Based Dose Retest to Confirm Inhibitors of Cancer Stem Cells. [Related pubchem assays (depositor defined):AID2717, AID2721]; format: functional; settings: Homo sapiens
# [11] = target: Heat shock protein HSP 90-alpha (Homo sapiens, UniProt P07900); format: functional, organism-based
# Vero = Vero cell cytotoxicity, cytotoxicity control for flavivirus capping enzyme inhibitors (AID 588742); format: functional; settings: Chlorocebus sabaeus
# Genome polyprotein = Genome polyprotein (dengue virus type 2, UniProt P29990); assay: Dengue-2 NS5 methyltransferase inhibitors, primary screen, biochemical, confirmation dose response (AID 588689); format: functional
# Genome polyprotein, sequence (P29990 2492-3391 limits assumed): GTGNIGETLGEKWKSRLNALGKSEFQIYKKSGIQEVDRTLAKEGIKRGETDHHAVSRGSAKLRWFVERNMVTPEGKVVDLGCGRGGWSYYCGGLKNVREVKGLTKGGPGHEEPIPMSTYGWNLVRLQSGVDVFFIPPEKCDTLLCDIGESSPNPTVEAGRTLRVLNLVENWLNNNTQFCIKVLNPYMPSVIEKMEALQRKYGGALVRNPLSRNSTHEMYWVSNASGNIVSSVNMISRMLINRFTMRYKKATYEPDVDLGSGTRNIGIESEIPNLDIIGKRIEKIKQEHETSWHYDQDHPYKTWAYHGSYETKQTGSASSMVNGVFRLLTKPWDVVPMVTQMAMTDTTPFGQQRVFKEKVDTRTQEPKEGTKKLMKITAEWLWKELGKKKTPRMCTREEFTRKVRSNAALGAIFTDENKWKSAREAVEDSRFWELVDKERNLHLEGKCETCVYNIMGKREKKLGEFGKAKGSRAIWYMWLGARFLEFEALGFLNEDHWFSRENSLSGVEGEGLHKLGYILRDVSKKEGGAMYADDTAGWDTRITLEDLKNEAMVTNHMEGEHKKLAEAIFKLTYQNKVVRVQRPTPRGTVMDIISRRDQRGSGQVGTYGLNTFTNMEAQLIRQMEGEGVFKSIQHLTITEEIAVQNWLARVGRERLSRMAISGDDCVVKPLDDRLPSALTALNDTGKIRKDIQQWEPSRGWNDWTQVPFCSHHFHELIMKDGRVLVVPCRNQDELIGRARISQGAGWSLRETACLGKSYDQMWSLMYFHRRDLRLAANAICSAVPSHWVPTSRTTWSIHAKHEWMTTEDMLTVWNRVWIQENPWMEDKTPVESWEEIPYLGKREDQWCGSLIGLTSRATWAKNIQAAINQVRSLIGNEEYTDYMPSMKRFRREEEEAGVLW
# Hexokinase HKDC1 = target: T8, Hexokinase HKDC1 (Homo sapiens, UniProt Q2TB90); assay: HKDC1 hexokinase activators, dose response, biochemical, W721R variant (AID 504730); format: functional
# T8 sequence (Q2TB90 whole entry): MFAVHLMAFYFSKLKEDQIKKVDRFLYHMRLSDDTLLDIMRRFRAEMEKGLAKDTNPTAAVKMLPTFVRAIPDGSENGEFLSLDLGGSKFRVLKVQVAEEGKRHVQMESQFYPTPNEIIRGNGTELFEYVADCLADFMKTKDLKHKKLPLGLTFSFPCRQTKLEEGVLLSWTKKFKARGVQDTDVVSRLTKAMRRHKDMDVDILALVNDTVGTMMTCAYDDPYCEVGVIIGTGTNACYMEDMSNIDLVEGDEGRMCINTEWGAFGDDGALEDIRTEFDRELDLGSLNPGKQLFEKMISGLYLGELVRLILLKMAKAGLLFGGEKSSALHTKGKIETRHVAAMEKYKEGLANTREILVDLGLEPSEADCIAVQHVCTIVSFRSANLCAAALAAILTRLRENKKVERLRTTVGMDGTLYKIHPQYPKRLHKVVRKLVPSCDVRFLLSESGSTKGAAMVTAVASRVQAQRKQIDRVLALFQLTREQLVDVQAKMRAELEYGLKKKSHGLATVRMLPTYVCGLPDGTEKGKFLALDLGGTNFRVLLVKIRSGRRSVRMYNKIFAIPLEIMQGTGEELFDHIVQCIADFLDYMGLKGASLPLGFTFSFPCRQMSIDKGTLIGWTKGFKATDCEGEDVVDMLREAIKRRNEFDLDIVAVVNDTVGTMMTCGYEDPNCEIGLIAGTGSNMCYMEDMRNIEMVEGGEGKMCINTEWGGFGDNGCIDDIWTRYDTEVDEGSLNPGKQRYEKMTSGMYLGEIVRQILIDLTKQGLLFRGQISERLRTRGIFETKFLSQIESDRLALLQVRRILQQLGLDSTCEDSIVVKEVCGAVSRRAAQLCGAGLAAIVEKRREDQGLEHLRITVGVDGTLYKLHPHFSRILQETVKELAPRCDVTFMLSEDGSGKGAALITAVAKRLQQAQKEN
# T1 sequence (Q9Y2T6 whole entry): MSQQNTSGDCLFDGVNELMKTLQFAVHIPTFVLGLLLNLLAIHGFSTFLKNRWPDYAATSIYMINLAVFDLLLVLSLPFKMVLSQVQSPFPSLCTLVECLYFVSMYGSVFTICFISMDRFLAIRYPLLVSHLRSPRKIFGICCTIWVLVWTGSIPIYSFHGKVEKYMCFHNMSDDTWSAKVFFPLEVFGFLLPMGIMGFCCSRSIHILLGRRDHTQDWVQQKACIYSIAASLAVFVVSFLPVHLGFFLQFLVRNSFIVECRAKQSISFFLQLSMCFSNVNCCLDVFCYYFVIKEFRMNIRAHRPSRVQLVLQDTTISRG
smiles,measurement,setting,value
COc1cc2c(cc1NC(=O)CSc1ccccc1)oc1ccccc12,EC50,[1],0.671 µM (active)
same,IC50,Cannabinoid receptor 2 [2],> 32 µM (inactive)
same,EC50,Cannabinoid receptor 2 [3],> 32 µM (inactive)
same,EC50,[4],0.627 µM (active)
same,IC50,Cannabinoid receptor 1,> 32 µM (inactive)
CNC(=S)N/N=C/c1ccc(OCc2ccccc2)c(Br)c1,IC50,CHO,7.62 µM (active)
Cc1ccc(S(=O)(=O)O)cc1.c1cc2c(c(NC3=NCCN3)c1)CCCC2,AC50,Cytochrome P450 1A2,inactive
c1ccc2cc(CCO[C@H]3CCCCO3)ncc2c1,AC50,[5],11.3 µM (active)
COc1cc(C(=O)NCc2ccc(OCCN(C)C)cc2)cc(OC)c1OC [TRIMETHOBENZAMIDE],AC50,Cytochrome P450 1A2,inactive
same,AC50,Cytochrome P450 2C9,inactive
CC(C)=CC(=O)Nc1ccc(OCc2ccccc2)cc1,EC50,[1],2.34 µM (active)
same,IC50,Cannabinoid receptor 2 [2],> 32 µM (inactive)
same,EC50,Cannabinoid receptor 2 [3],> 32 µM (inactive)
same,IC50,Caspase-3,20.8 µM (active)
same,IC50,[6],8.82 µM (active)
same,IC50,[7],25.9 µM (active)
same,IC50,[8],28.6 µM (active)
same,EC50,[4],1.89 µM (active)
same,IC50,Cannabinoid receptor 1,> 32 µM (inactive)
same,AC50,[9],> 52 µM (inactive)
CC1(C)CC[C@]2(C(=O)O)CC[C@]3(C)C(=CC[C@@H]4[C@@]5(C)CC[C@H](O[C@@H]6O[C@H](C(=O)O)[C@@H](O)[C@H](O[C@@H]7OC[C@H](O)[C@H](O)[C@H]7O)[C@H]6O)C(C)(C)[C@@H]5CC[C@]43C)[C@@H]2C1,AC50,[10],2.85 µM (active)
same,AC50,[11],0.649 µM (active)
same,CC50,Vero,36.8 µM (active)
same,IC50,Genome polyprotein,31 µM (active)
Cc1cc(Oc2ccc(C(C)(C)C)cc2)nc(N2CCOCC2)n1,EC50,Hexokinase HKDC1,> 80 µM (inactive)
